Reference: patent publication US3995059A, “Pharmaceutical compositions containing fatty acid amide derivatives” (Sumitomo Chemical Company, Limited, priority 1966, dated 1976)

Key:
[1] = test system: total cholesterol value in the blood serum; experiment: Total cholesterol in blood serum of mice fed a diet enriched with cholesterol and bile acids (Table 1); type: in vivo; settings: 0.2% in diet, oral, 8 to 12 days
Procedure: The effectiveness of the compounds was tested by using mice fed on a specific diet which was enriched with cholesterol and bile acids. […] The amide compound as well was mixed with the specific diet in an amount of 0.2%, and continuously administered orally for 8 to 12 days. Then the total cholesterol value in the blood serum of the animals was evaluated.

[2] = test system: liver cholesterol; experiment: Liver cholesterol (deposition of cholesterol and fat in the liver) of mice fed a cholesterol-rich diet (Table 1); type: in vivo; settings: 0.2% in diet, oral, 8 to 12 days
[3] = experiment [VIII], control 2652

CCCCC/C=C\C/C=C\CCCCCCCC(=O)NC(C)c1ccc(Br)cc1 (centres unmarked)
Serum cholesterol ([1]; experiment [III], control 471): 322 mg %
Liver cholesterol ([2]; experiment [III], control not given): 1341 mg/100 g.

CCC(NC(=O)CCCCCCCCCCCCCCC(C)C)c1ccc(C(C)(C)C)cc1 (centres unmarked)
Serum cholesterol ([1]; experiment [IV], control 595): 297 mg %
Liver cholesterol ([2]; experiment [IV], control 3145): 905 mg/100 g.

CCCCC/C=C\C/C=C\CCCCCCCC(=O)NC(C)c1ccccc1[N+](=O)[O-] (centres unmarked)
Serum cholesterol ([1]; experiment [VIII], control 472): 299 mg %
Liver cholesterol [2, 3]: 1003 mg/100 g.

CCCCC/C=C\C/C=C\CCCCCCCC(=O)NC(C)c1cccc([N+](=O)[O-])c1 (centres unmarked)
Serum cholesterol ([1]; experiment [VIII], control 472): 287 mg %
Liver cholesterol [2, 3]: 992 mg/100 g.

CCCCC/C=C\C/C=C\CCCCCCCC(=O)NC(CC)c1ccc([N+](=O)[O-])cc1 (centres unmarked)
Serum cholesterol ([1]; experiment [VIII], control 472): 331 mg %
Liver cholesterol [2, 3]: 980 mg/100 g.

CC/C=C\C/C=C\C/C=C\CCCCCCCC(=O)NC(CC)c1ccccc1[N+](=O)[O-] (centres unmarked)
Serum cholesterol ([1]; experiment [VIII], control 472): 300 mg %
Liver cholesterol [2, 3]: 1091 mg/100 g.

CCCCCCCC/C=C\CCCCCCCC(=O)NC(C)c1ccccc1[N+](=O)[O-] (centres unmarked)
Serum cholesterol ([1]; experiment [VIII], control 472): 309 mg %
Liver cholesterol [2, 3]: 1113 mg/100 g.

CCCCCCCC/C=C\CCCCCCCC(=O)NC12CC3CC(CC(C3)C1)C2
Serum cholesterol ([1]; experiment [IX], control 336): 294 mg %
Liver cholesterol ([2]; experiment [IX], control 2200): 1120 mg/100 g.

CC/C=C\C/C=C\C/C=C\CCCCCCCC(=O)NC12CC3CC(CC(C3)C1)C2
Serum cholesterol ([1]; experiment [IX], control 336): 279 mg %
Liver cholesterol ([2]; experiment [IX], control 2200): 750 mg/100 g.

CCCCCCCC/C=C\CCCCCCCC(=O)N(C1CCCCC1)C1CCCCC1
Serum cholesterol ([1]; experiment [XI], control 595): 309 mg %
Liver cholesterol ([2]; experiment [XI], control 3451): 929 mg/100 g.

CCCCCCCC/C=C\CCCCCCCC(=O)NC(C)c1ccc(CC)cc1 (racemic)
Serum cholesterol ([1]; experiment [X], control 554): 304 mg %
Liver cholesterol ([2]; experiment [X], control 3293): 1010 mg/100 g.

CCCCCCCC/C=C\CCCCCCCC(=O)NC(C)c1ccc(Br)cc1 (racemic)
Serum cholesterol ([1]; experiment [XI], control 595): 299 mg %
Liver cholesterol ([2]; experiment [XI], control 3451): 1039 mg/100 g.

CCCCCCCC/C=C\CCCCCCCC(=O)NC(CC)c1cccc([N+](=O)[O-])c1 (racemic)
Serum cholesterol ([1]; experiment [XI], control 595): 362 mg %
Liver cholesterol ([2]; experiment [XI], control 3451): 1342 mg/100 g.

CCCCCCCC/C=C\CCCCCCCC(=O)NC(C)c1ccc(OC)cc1 (racemic)
Serum cholesterol ([1]; experiment [XI], control 595): 382 mg %
Liver cholesterol ([2]; experiment [XI], control 3451): 1210 mg/100 g.

CC/C=C\C/C=C\C/C=C\CCCCCCCC(=O)NC(C)c1cccc(Cl)c1 (racemic)
Serum cholesterol ([1]; experiment [XI], control 595): 309 mg %
Liver cholesterol ([2]; experiment [XI], control 3451): 1125 mg/100 g.

CC/C=C\C/C=C\C/C=C\CCCCCCCC(=O)NC(CC)c1ccc(OC)cc1 (racemic)
Serum cholesterol ([1]; experiment [XI], control 595): 325 mg %
Liver cholesterol ([2]; experiment [XI], control 3451): 1450 mg/100 g.

CC(C)CCCCCCCCCCCCCCC(=O)NC(C)c1ccccc1 (single isomer, unassigned; (+)) [(+) N-(α-Methylbenzyl)-isostearamide]
Serum cholesterol ([1]; experiment [I], control 546): 251 mg %
Liver cholesterol ([2]; experiment [I], control 3585): 761 mg/100 g.

CCCCC/C=C\C/C=C\CCCCCCCC(=O)NC(C)c1ccccc1 (single isomer, unassigned; (+)) [(+) N-(α-Methylbenzyl)-linoleamide]
Serum cholesterol ([1]; experiment [I], control 546): 267 mg %
Liver cholesterol ([2]; experiment [I], control 3585): 764 mg/100 g.

CC/C=C\C/C=C\C/C=C\CCCCCCCC(=O)NC(C)c1ccccc1 (single isomer, unassigned; (+)) [(+) N-(α-Methylbenzyl)-linolenamide]
Serum cholesterol ([1]; experiment [I], control 546): 269 mg %
Liver cholesterol ([2]; experiment [I], control 3585): 784 mg/100 g.

CCCCCCCC/C=C\CCCCCCCC(=O)NC(C)c1ccccc1 (single isomer, unassigned; (+)) [(+) N-(α-Methylbenzyl)-oleamide]
Serum cholesterol ([1]; experiment [I], control 546): 288 mg %
Liver cholesterol ([2]; experiment [I], control 3585): 797 mg/100 g.

CCCCC/C=C\C/C=C\CCCCCCCC(=O)NC(CC)c1ccccc1 (single isomer, unassigned; (-)) [(-) (α-Ethylbenzyl)-linoleamide]
Serum cholesterol ([1]; experiment [II], control 521): 251 mg %
Liver cholesterol ([2]; experiment [II], control 3308): 821 mg/100 g.

CC(C)CCCCCCCCCCCCCCC(=O)NC(C)c1ccccc1 (single isomer, unassigned; (-)) [(-) (α-Methylbenzyl)-isostearamide]
Serum cholesterol ([1]; experiment [II], control 521): 246 mg %
Liver cholesterol ([2]; experiment [II], control 3308): 777 mg/100 g.
